Data on 22 molecules can be found in patent publication US11046714B2, “2,2-difluorodioxolo A2A receptor antagonists” (Merck Sharp & Dohme Corp., priority 2013, dated 2021).

The assay has as its target human A2A receptor (Homo sapiens (Human), UniProt P29274). Put plainly: competition binding assay using Scintillation Proximity technology. As to conditions: membranes from CHO-K1 cells expressing the human A2a receptor; 2.0 nM tritiated compound; Cheng-Prusoff. The method, then: The utility of the compounds in accordance with the present invention as A2A receptor antagonists may be readily determined without undue experimentation by methodologies well known in the art, including by a competition binding assay using Scintillation Proximity technology. Briefly, membranes from CHO-K1 cells expressing the human A2A receptor are incubated with a test compound at various concentrations, e.g., ranging from 3000 nM to 0.15 nM, in a reaction mixture also containing a tritiated form of 5-amino-7-[2-phenethyl]-2-(furan-2-yl)-7H-pyrazolo[4,3-e][1,2,4]triazolo[1,5-c]pyrimidine (the tritiated compound) and wheatgerm agglutin-coated yttrium silicate SPA beads at room temperature. The beads are then allowed to settle to the bottom of the wells, after which the membrane-associated radioactivity is determined by scintillation counting in a microplate reader. Ki values can be determined using the Cheng-Prusoff equation.
Thus, 1.0 μg of membranes from CHO-K1 cells expressing the human A2a receptor were incubated with a compound of the invention at concentrations ranging from 3000 nM to 0.15 nM in a reaction mixture also containing 2.0 nM of a tritiated form of 5-amino-7-[2-phenethyl]-2-(furan-2-yl)-7H-pyrazolo[4,3-e][1,2,4]triazolo[1,5-c]pyrimidine (the tritiated compound) and 100 μg of wheatgerm agglutin-coated yttrium silicate SPA beads for one hour at room temperature with agitation. The beads were then allowed to settle to the bottom of the wells for 1 hr, after which the membrane-associated radioactivity was determined by scintillation counting in a TopCount microplate reader. Ki values were determined using the Cheng-Prusoff equation.
Summary of Materials and Methods Used in A2a Activity Determination:
• Membranes from CHO-K1 cells expressing the human Adenosine2A receptor (Perkin-Elmer #RBHA2AM400UA). • The tritiated compound was prepared according to published methods. • Wheatgerm agglutinin-coated yttrium silicate SPA beads (GE Healthcare #RPNQ0023). Dilute to 25 mg/ml in Assay Buffer. • Assay Buffer: Dulbecco's calcium and magnesium free phosphate buffered saline+10 mM MgCl2 • Adenosine deaminase (ADA) from calf intestine, 10 mg/2 ml (Roche #10 102 105 001). • DMSO • A2a antagonist standard (9-chloro-1-(2-furanyl)-[1,2,4]triazolo[1,5-c]quinazolin-5-amine from Tocris Bioscience) Compound Dilution • Make eight 1:3 serial dilutions in 100% DMSO from a 3 mM compound stock. • Transfer 50 nL of compound into a 384-well OptiPlate (Perkin Elmer). • Typically, final concentrations of compound used in the assay ranged from 3000 nM to 0.152 nM. Radioisotope • Dilute a solution of the tritiated compound to 5.0 nM in assay buffer. This is a 2.5× solution. The final concentration in the assay is 2.0 nM. Calculate the concentration by counting two 5 μL aliquots. Membrane Preparation • Use 1.0 μg of membrane/well. Dilute membranes to 33 μg/mL in assay buffer. Treat with 20 μg/mL ADA for 15 minutes at room temperature to degrade endogenous adenosine. Membrane-Bead Mixture • Use 100 μg/well wheatgerm agglutinin-coated yttrium silicate SPA beads. • Mix ADA-treated membranes and SPA beads together for 30 min prior to assay. Assay Assembly • To the Perkin-Elmer Optiplate-384 containing the compound titration add 20 μL of 2.5× solution of the tritiated compound and 30 μL of the membrane-bead mixture. Incubate for one hour at room temperature with agitation. • Include total binding (assay buffer+1% DMSO) and non-specific binding (CGS 15943, 1 μM) wells. Counting • Allow the beads to settle for one hour. • Count in TopCount. Calculations • A curve fitting program (i.e., Prism, Activity Base, Chemcart) is used to determine the EC50. The Ki value is calculated using the Cheng-Prusoff equation. Ki=EC50/(1+(radioligand concentration/Kd))
(In general: SPA uses beads or plates that emit light when radiolabelled molecules are held near them.)

human A2A receptor, sequence (P29274 whole entry): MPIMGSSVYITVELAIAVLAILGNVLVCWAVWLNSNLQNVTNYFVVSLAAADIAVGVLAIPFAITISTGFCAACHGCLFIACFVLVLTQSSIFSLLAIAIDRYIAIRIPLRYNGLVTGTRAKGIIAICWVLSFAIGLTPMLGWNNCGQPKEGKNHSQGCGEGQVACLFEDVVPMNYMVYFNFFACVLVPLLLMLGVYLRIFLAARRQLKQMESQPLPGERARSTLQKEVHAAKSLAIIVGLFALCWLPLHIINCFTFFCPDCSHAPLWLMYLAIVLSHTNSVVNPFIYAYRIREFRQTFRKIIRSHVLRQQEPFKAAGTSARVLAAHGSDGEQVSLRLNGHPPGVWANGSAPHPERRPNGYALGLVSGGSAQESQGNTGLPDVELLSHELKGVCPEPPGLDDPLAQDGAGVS

As usually defined, the Ki is the dissociation constant of the complex between target and ligand, obtained from inhibition or displacement. Consider `C[C@@H](Cc1nc2c3ccc4c(c3nc(N)n2n1)OC(F)(F)O4)N1Cc2ccncc2C1` [Example 87, (S)-8-(2-(1H-pyrrolo[3,4-c]pyridin-2(3H)-yl)propyl)-2,2-difluoro-[1,3]dioxolo[4,5-h][1,2,4]triazolo[1,5-c]quinazolin-5-amine], for which the affinity, expressed as Ki, was 7.7 nM.
Consider `CC1(F)CN(Cc2nc3c4ccc5c(c4nc(N)n3n2)OC(F)(F)O5)C1` [Example 111, 2,2-difluoro-8-[(3-fluoro-3-methylazetidin-1-yl)methyl][1,3] dioxolo[4,5-h][1,2,4]triazolo[1,5-c]quinazolin-5-amine], for which the Ki was 1.4 nM.
For `CC(Cc1nc2c3ccc4c(c3nc(N)n2n1)OC(F)(F)O4)N1CCCC(F)(F)C1` (single isomer, unassigned) [Example 96, (R or S)-8-[2-(3,3-difluoropiperidin-1-yl)propyl]-2,2-difluoro[1,3] dioxolo[4,5-h][1,2,4]triazolo[1,5-c] quinazolin-5-amine] the value was 4.1 nM; for `Nc1nc2c3c(ccc2c2nc(CCN4CCC5(CCNCC5)C4)nn12)OC(F)(F)O3` [Example 53, 8-[2-(2,8-diazaspiro[4.5]dec-2-yl)ethyl]-2,2-difluoro[1,3] dioxolo[4,5-h][1,2,4]triazolo [1,5-c]quinazolin-5-amine], 39 nM; for `Cc1csc(CN(Cc2nc3c4ccc5c(c4nc(N)n3n2)OC(F)(F)O5)CC2CC2)n1` [Example 127, 8-({(cyclopropylmethyl)[(4-methyl-1,3-thiazol-2-yl)methyl]amino}methyl)-2,2-difluoro[1,3]dioxolo[4,5-h][1,2,4] triazolo[1,5-c]quinazolin-5-amine], 1.4 nM.
Regarding `Cc1nc2c(s1)CCN([C@H](C)Cc1nc3c4ccc5c(c4nc(N)n3n1)OC(F)(F)O5)C2` [Example 82, 2,2-difluoro-8-[(2R)-2-(2-methyl-6,7-dihydro[1,3]thiazolo[4,5-c]pyridin-5(4H)-yl)propyl][1,3] dioxolo[4,5-h][1,2,4]triazolo [1,5-c]quinazolin-5-amine], the Ki is 1.5 nM.
For `CC1(F)CCCN(CCc2nc3c4ccc5c(c4nc(N)n3n2)OC(F)(F)O5)C1` (single isomer, unassigned) [Example 64, (R or S)-2,2-difluoro-8-[2-(3-fluoro-3-methylpiperidin-1-yl)ethyl][1,3] dioxolo[4,5-h][1,2,4]triazolo[1,5-c] quinazolin-5-amine] the value was 7.7 nM; for `C[C@H](Cc1nc2c3ccc4c(c3nc(N)n2n1)OC(F)(F)O4)N1Cc2ccncc2C1` [Example 74, (R)-8-(2-(1H-pyrrolo[3,4-c]pyridin-2(3H)-yl)propyl)-2,2-difluoro-[1,3]dioxolo[4,5-h][1,2,4]triazolo[1,5-c]quinazolin-5-amine], 7.1 nM.
`Nc1nc2c3c(ccc2c2nc(CN4CC(F)(C(F)(F)F)C4)nn12)OC(F)(F)O3` [Example 114, 2,2-difluoro-8-{[3-fluoro-3-(trifluoromethyl)azetidin-1-yl]methyl} [1,3]dioxolo[4,5-h][1,2,4]triazolo[1,5-c]quinazolin-5-amine] returned a Ki of 1.4 nM.
For `CC(c1nc2c3ccc4c(c3nc(N)n2n1)OC(F)(F)O4)N1CCCC(F)(F)C1` (single isomer, unassigned) [Example 136, 8-[(1S or 1R)-1-(3,3-difluoropiperidin-1-yl)ethyl]-2,2-difluoro[1,3]dioxolo [4,5-h][1,2,4]triazolo[1,5-c] quinazolin-5-amine] the value was 25 nM; for `Nc1nc2c3c(ccc2c2nc(CCN4CCC5(CCNCC5)CC4)nn12)OC(F)(F)O3` [Example 54, 8-[2-(3,9-diazaspiro[5.5]undec-3-yl)ethyl]-2,2-difluoro[1,3] dioxolo[4,5-h][1,2,4]triazolo [1,5-c]quinazolin-5-amine], 320 nM; for `CC1(C)CN(CCc2nc3c4ccc5c(c4nc(N)n3n2)OC(F)(F)O5)C1` [Example 33, 8-[2-(3,3-dimethylazetidin-1-yl)ethyl]-2,2-difluoro[1,3]dioxolo [4,5-h][1,2,4]triazolo[1,5-c]quinazolin-5-amine], 29 nM.
For `Nc1nc2c3c(ccc2c2nc(CCN4CCN(c5cccc(F)c5)C(=O)C4)nn12)OC(F)(F)O3` [Example 50, 4-[2-(5-amino-2,2-difluoro[1,3]dioxolo[4,5-h][1,2,4]triazolo [1,5-c]quinazolin-8-yl)ethyl]-1-(3-fluorophenyl)piperazin-2-one] the value was 1.1 nM; for `Nc1nc2c3c(ccc2c2nc(Cc4cccnc4Cl)nn12)OC(F)(F)O3` [Example 3, 8-((2-chloropyridin-3-yl)methyl)-2,2-difluoro-[1,3]dioxolo[4,5-h][1,2,4]triazolo[1,5-c]quinazolin-5-amine], 2.9 nM.
To `Nc1nc2c3c(ccc2c2nc(CCN4CCN(C5CCCC5)C(=O)C4)nn12)OC(F)(F)O3` [Example 49, 4-[2-(5-amino-2,2-difluoro[1,3]dioxolo[4,5-h][1,2,4]triazolo [1,5-c]quinazolin-8-yl)ethyl]-1-cyclopentylpiperazin-2-one] belongs 1.6 nM.
On to `Nc1nc2c3c(ccc2c2nc(CNC4(C(F)(F)F)CCC4)nn12)OC(F)(F)O3` [Example 125, 2,2-difluoro-8-({[1-(trifluoromethyl)cyclobutyl]amino}methyl)[1,3]dioxolo [4,5-h][1,2,4]triazolo[1,5-c]quinazolin-5-amine], for which the inhibition constant (Ki) stood at 1.1 nM.
For `CN(C)Cc1nc2c3ccc4c(c3nc(N)n2n1)OC(F)(F)O4` [Example 126, 8-[(dimethylamino)methyl]-2,2-difluoro[1,3]dioxolo[4,5-h][1,2,4] triazolo[1,5-c]quinazolin-5-amine] the value was 29 nM; for `Nc1nc2c3c(ccc2c2nc(C4CCCN(CCC(F)(F)F)C4)nn12)OC(F)(F)O3` (single isomer, unassigned) [Example 141, (R or S)-2,2-difluoro-8-(1-(3,3,3-trifluoropropyl)piperidin-3-yl)-[1,3]dioxolo[4,5-h][1,2,4]triazolo[1,5-c]quinazolin-5-amine], 55 nM.
The molecule `Nc1nc2c3c(ccc2c2nc(CC(CO)CO)nn12)OC(F)(F)O3` [Example 149, 2-[(5-amino-2,2-difluoro[1,3]dioxolo[4,5-h][1,2,4]triazolo[1,5-c]quinazolin-8-yl)methyl]propane-1,3-diol] displayed a Ki of 2.7 nM.
For `CC1N(CCc2nc3c4ccc5c(c4nc(N)n3n2)OC(F)(F)O5)CCCC1(F)F` (single isomer, unassigned) [Example 68, (R or S)-8-[2-(3,3-difluoro-2-methylpiperidin-1-yl)ethyl]-2,2-difluoro[1,3]dioxolo[4,5-h][1,2,4] triazolo[1,5-c]quinazolin-5-amine] the value was 1.2 nM; for `Nc1nc2c3c(ccc2c2nc(C4CCCN(c5cccc(F)c5)C4)nn12)OC(F)(F)O3` (single isomer, unassigned) [Example 142, (R or S)-2,2-difluoro-8-[1-(3-fluorophenyl)piperidin-3-yl][1,3]dioxolo[4,5-h][1,2,4]triazolo[1,5-c]quinazolin-5-amine], 1.2 nM.
To `Nc1nc2c3c(ccc2c2nc(CN4CCCC(F)(F)C4)nn12)OC(F)(F)O3` [Example 118, 8-[(3,3-difluoropiperidin-1-yl)methyl]-2,2-difluoro[1,3]dioxolo[4,5-h][1,2,4] triazolo[1,5-c]quinazolin-5-amine] belongs 4.2 nM.
